Results taken from publication PMC9918900, “New Succinimide–Thiazolidinedione Hybrids as Multitarget Antidiabetic Agents: Design, Synthesis, Bioevaluation, and Molecular Modelling Studies” (Molecules, 2023).

Experiments:
α-amylase = molecular target: T1, α-amylase (Homo sapiens, UniProt P04746); assay: in vitro α-amylase inhibitory activity; type: biochemical
T1 sequence (P04746 16-511): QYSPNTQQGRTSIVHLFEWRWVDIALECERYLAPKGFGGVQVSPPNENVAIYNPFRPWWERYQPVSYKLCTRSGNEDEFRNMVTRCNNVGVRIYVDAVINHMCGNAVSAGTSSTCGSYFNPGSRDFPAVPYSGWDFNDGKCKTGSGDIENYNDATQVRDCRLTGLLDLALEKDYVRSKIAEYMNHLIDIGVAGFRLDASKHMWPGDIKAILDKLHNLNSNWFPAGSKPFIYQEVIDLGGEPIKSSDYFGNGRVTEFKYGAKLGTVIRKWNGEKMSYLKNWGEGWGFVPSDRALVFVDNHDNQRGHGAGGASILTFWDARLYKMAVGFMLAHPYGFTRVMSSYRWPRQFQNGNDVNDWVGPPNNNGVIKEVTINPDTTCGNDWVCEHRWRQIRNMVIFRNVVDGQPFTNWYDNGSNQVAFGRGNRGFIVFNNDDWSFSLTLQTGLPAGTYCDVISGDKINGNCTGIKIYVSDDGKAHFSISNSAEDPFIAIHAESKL
Experimental: The test samples were added in alpha-amylase solution. The enzyme solution was prepared with enzyme and buffer solution. The mixture of the samples and enzyme was then incubated. Then, starch and dinitrosalicylic acid solution was added. The same was performed for both test compounds and the standard drug. […] The percent alpha-amylase inhibition activity and its IC50 values were calculated and confirmed as per the previous procedure.

α-glucosidase = assay: in vitro α-glucosidase inhibitory activity; type: biochemical, Homo sapiens
Experimental: The inhibitory analyses for α-glucosidase were carried out in accordance with the protocols reported in the literature; the inhibitory activities of the synthesized hybrids were calculated utilizing screening assay tools.

[1] = tested on: streptozotocin-induced diabetic rats; assay: effect on serum lipid profile of diabetic animals; type: in vivo, Wistar rats; settings: compared to diabetic control group
Experimental: The antidiabetic activity of the synthesized compound 10d was evaluated using a streptozotocin-induced diabetic rats model.
Male Wistar rats weighing 150 to 230 gm were used for the study which were housed in polyacrylic cages (no more than six animals per cage) with dimensions of 38 × 23 × 10 cm and maintained under standard laboratory conditions with a dark/light cycle of 14 h of dark and 10 h of light at a temperature of 25 °C. The animals were provided with a standard diet (dry pellet) and water ad libitum. Before the start of the experimental procedures, the rats were acclimatized to laboratory conditions for 10 days. All the experiments were approved and performed as per the guidelines of the Departmental Research Ethics Committee under letter No. DREC/050 [49].
Non-insulin-dependent diabetes mellitus was induced in fasted rats weighing 150–230 gm using a single dose of streptozotocin (STZ) at a dose of 60 mg/kg intraperitoneally after 15 min of the administration of nicotinamide at a 120 mg/kg dose i.p. Nicotinamide was prepared in normal saline while in citrate buffer (pH 4.5), STZ was prepared. After the induction of diabetes, the increase in the plasma glucose level was measured at 72 h and then measured on the 7th day to confirm hyperglycemia. For the diagnosis of diabetes, the threshold value of the fasting plasma glucose level was considered to be more than 126 mg/dl. For the study, only the animals with permanent NIIDM were utilized.
The animals were classified into 5 groups with 6 animals in each group (n = 6). Group I comprised of normal control rats which were daily administered drinking water only; group II served as diabetic control rats (disease group); group III served as the positive control and were administered 0.5 mg/kg of the standard drug glibenclamide; and group IV and V served as the test group rats and were administered the test compound 10d at 10 mg/kg and 20 mg/kg, respectively, for twenty-eight days. The fasting glucose concentration was measured on the 0, 7th, 14th, and 28th day of the administration of the extract. During the experimental tenure, the weights of the rats were determined daily and the mean change was recorded.
The animals were euthanized (sacrificed) via cervical dislocation on the 28th day to observe the biochemical parameters. The parameters studied were triglyceride (TGL), cholesterol, low-density lipoprotein, and high-density lipoprotein (LDL and HDL). The Minias Globe Diagnostic kits were used for cholesterol and TGL. Semi-autoanalyzers were used for the analysis. The serum samples from the rats were also checked for alanine aminotransferase (ALT), aspartate aminotransferase (AST), lactate dehydrogenase (LDH), serum alkaline phosphatase (ALP), and creatinine and urea levels utilizing commercially available kits of Crest Biosystems. The statistical analysis was also performed as per the previous procedure.

PTP1B = molecular target: T2, PTP1B (Homo sapiens, UniProt P18031); assay: PTP1B assay (pNPP substrate); type: biochemical
T2 sequence (P18031 1-435): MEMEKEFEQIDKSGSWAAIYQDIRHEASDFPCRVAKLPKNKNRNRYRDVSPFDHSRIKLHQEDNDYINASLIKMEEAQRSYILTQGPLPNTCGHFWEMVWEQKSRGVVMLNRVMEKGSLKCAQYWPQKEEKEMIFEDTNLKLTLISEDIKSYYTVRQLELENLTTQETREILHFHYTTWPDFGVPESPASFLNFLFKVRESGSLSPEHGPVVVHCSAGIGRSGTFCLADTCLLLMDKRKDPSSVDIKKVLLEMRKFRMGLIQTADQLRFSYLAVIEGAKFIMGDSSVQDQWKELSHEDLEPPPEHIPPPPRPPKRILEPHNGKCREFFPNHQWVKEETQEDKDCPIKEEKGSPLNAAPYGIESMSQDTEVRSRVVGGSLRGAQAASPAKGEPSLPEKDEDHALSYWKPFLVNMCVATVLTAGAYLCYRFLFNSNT
Experimental: The aforementioned newly synthesize succinimides and thiazolidinedione hybrids were tested against the PTP1B enzyme to determine their ability to inhibit the negative regulation of insulin as well as leptin signaling. The PTP1B test was performed with a small modification to the method described in the publications. The enzyme efficiency was evaluated using […] (pNPP) as a substrate. For the buffer solution, 0.5 millimolar (mM) of ethylene diamine tetraacetic acid (EDTA), 1 mM of mercaptoethanol, 0.55 mM of dithiothreitol (DTT), and 12.49 mM of TRIS hydrochloride (ph = 7.4) were used. The experiment was carried out by mixing 10.0 μL of the test compound solutions with 20.0 μL of the enzyme (1 μg/mL), subsequently injecting 40.0 μL of 4.0 mM 4-nitrophenyl dihydrogen phosphate in 130.5 μL of the prescribed buffer in a microplate well at 37 °C for 10 min. pNP was formed during the enzymatic process, which was monitored for 30 min. The IC50 values were derived using a non-linear regression analysis of the fraction of the product generated vs. the log of the inhibitory concentration.

`CC(C)(C=C1SC(=O)N(C(=O)CN2CCOCC2)C1=O)C1CC(=O)N(Cc2ccccc2)C1=O` (stereo not shown) [10d] was tested. Which IC50 (α-amylase) did it give?
Its IC50 is 12 µM.

What about the inhibition at 31.25 µM (α-amylase; 31.25 µM, read-out: % α-Amylase Inhibition (converted)) of the same compound?
Its inhibition at 31.25 µM is 68.6%.

What about the inhibition at 62.5 µM (α-amylase; 62.5 µM, read-out: % α-Amylase Inhibition (converted)) of the same compound?
Its inhibition at 62.5 µM is 70%.

And the inhibition at 125 µM (α-amylase; 125 µM, read-out: % α-Amylase Inhibition (converted))?
The inhibition at 125 µM was 72.7%.

And the inhibition at 250 µM (α-amylase; 250 µM, read-out: % α-Amylase Inhibition (converted))?
Its inhibition at 250 µM is 76.3%.

What about the inhibition at 500 µM (α-amylase; 500 µM, read-out: % α-Amylase Inhibition) of the same compound?
Its inhibition at 500 µM is 82.3 ± 1.2%.

And the IC50 (α-glucosidase)?
The IC50 was 10 µM.

What about the “% α-Glucosidase Inhibition” value (α-glucosidase; 31.25 µM) of the same compound?
Its value is 67.10 ± 0.95%.

What about the “% α-Glucosidase Inhibition” value (α-glucosidase; 62.5 µM) of the same compound?
The value was 72.26 ± 0.77%.

And the “% α-Glucosidase Inhibition” value (α-glucosidase; 125 µM)?
The value was 77.93 ± 0.90%.

And the “% α-Glucosidase Inhibition” value (α-glucosidase; 250 µM)?
The value was 83.83 ± 0.66%.

And the “% α-Glucosidase Inhibition” value (α-glucosidase; 500 µM)?
Its value is 88.43 ± 1.26%.

What about the HDL level [1] of the same compound?
The HDL level was “greater than before”.

And the LDL in serum [1]?
The LDL in serum was “significant decline”.

What about the “total cholesterol level in serum” value [1] of the same compound?
The value was “significant decline”.

And the triglyceride in serum [1]?
The triglyceride in serum was “significant decline”.

And the IC50 (PTP1B)?
The IC50 was 3.64 µM.

What about the inhibition at 31.25 µM (PTP1B; 31.25 µM) of the same compound?
Its inhibition at 31.25 µM is 71.8%.

And the inhibition at 62.5 µM (PTP1B; 62.5 µM)?
Its inhibition at 62.5 µM is 74.7%.

And the inhibition at 125 µM (PTP1B; 125 µM)?
The inhibition at 125 µM was 79%.

What about the inhibition at 250 µM (PTP1B; 250 µM) of the same compound?
The inhibition at 250 µM was 84.5%.

What about the inhibition at 500 µM (PTP1B; 500 µM) of the same compound?
Its inhibition at 500 µM is 89.88 ± 0.89%.
